This is an account of results in patent EP1763509B1, “ALPHA-HELICAL MIMETICS” (THE WALTER AND ELIZA HALL INSTITUTE OF MEDICAL RESEARCH, priority 2004, dated 2006).

One may read the IC50 as the midpoint of a concentration-inhibition curve. Read a low IC50 as higher potency.

The first experiment addresses T1, Bcl-wΔ29 (Homo sapiens, UniProt Q92843).
T1 construct: GST tagged Bclw ΔC29 protein
T1 sequence (Q92843 1-164 limits assumed): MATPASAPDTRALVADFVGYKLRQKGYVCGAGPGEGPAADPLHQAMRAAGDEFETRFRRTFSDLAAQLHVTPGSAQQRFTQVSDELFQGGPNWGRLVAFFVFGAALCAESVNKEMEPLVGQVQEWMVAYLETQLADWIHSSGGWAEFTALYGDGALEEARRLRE
The experiment in a line: Alphascreen GST competition binding assay, benzoylurea compounds vs Biotinylated Bim BH3-26 peptide on GST tagged Bclw ΔC29 protein. The settings on record: GST tagged Bclw ΔC29 protein 0.05 nM, Biotinylated Bim BH3-26 peptide 3.0 nM, 4 hours at room temperature; values marked a tested in a separate experiment; n.b. = not binding in the assay conditions. (In general: Bead proximity is the source of the signal in Alpha formats.)
The compound `CCCN(C(=O)N[C@@H](CSCc1ccccc1)C(=O)O)C(=O)c1ccc(-c2ccc(F)cc2)cc1` [(11)] returned an IC50 of 104 µM.
On the same count and under the same terms, in the case of `O=C(O)[C@H](CSCc1ccccc1)NC(=O)N(Cc1cccnc1)C(=O)c1cccc(-c2ccccc2)c1` [(12)] it was 46 µM.
On the same count and under the same terms, in the case of `CCCN(C(=O)N[C@@H](CSCc1ccccc1)C(=O)O)C(=O)c1cccc(-c2cccc3ccccc23)c1` [(13)] it was 31 µM; in that of `CCCN(C(=O)N[C@@H](CSCc1ccccc1)C(=O)O)C(=O)c1cccc(-c2ccc3ccccc3c2)c1` [(14)], 36 µM; in that of `CCCN(C(=O)N[C@@H](Cc1ccc(-c2ccccc2)cc1)C(=O)O)C(=O)c1cccc(-c2ccccc2)c1` [(15)], 41 µM.
Still for that read-out and setting: in the case of `CCCN(C(=O)N[C@@H](CCc1ccccc1)C(=O)O)C(=O)c1cccc(-c2ccccc2)c1` [(16)] it was 130 µM; in that of `CCCN(C(=O)N[C@@H](Cc1ccc2ccccc2c1)C(=O)O)C(=O)c1cccc(-c2ccccc2)c1` [(17)], 55 µM.
In the case of `CCCN(C(=O)N[C@@H](Cc1cccc2ccccc12)C(=O)O)C(=O)c1cccc(-c2ccccc2)c1` [(18)], the IC50 amounted to 60 µM. This IC50 and that of the compound before are within 1.5-fold of each other.
The same measure, in the same setting: in the case of `CCCN(C(=O)N[C@@H](CCCc1ccccc1)C(=O)O)C(=O)c1cccc(-c2ccccc2)c1` [(19)] it was 132 µM; in that of `CCCN(C(=O)N[C@H](CSCc1ccccc1)C(=O)O)C(=O)c1cccc(-c2ccccc2)c1` [(21)], 84 µM.
Same read-out and setting: in the case of `CCCN(C(=O)N[C@@H](CSc1ccccc1)C(=O)O)C(=O)c1cccc(-c2ccccc2)c1` [(22)] it was 80 µM; in that of `CCCN(C(=O)N[C@@H](CSCc1ccccc1)C(=O)O)C(=O)c1ccc(-c2ccccc2)cc1` [(23)], 76 µM; in that of `O=C(O)[C@H](CSCc1ccccc1)NC(=O)N(Cc1cccc2ccccc12)C(=O)c1cccc(-c2ccccc2)c1` [(24)], 31.2 µM.
Same read-out and setting: in the case of `CCCN(C(=O)N[C@@H](CSCCc1ccncc1)C(=O)O)C(=O)c1cccc(-c2ccccc2)c1` [(25)] it was 261 µM.
`CCCN(C(=O)N[C@@H](Cc1ccccc1)C(=O)O)C(=O)c1cccc(-c2ccccc2)c1` [(27)] had an IC50 of 194 µM. This IC50 and that of the compound before are within 1.5-fold of each other.
Still for that read-out and setting: in the case of `CCCN(C(=O)N[C@@H](Cc1ccc(O)cc1)C(=O)O)C(=O)c1cccc(-c2ccccc2)c1` [(28)] it was 300 µM; in that of `CCCN(C(=O)N[C@@H](Cc1c[nH]c2ccccc12)C(=O)O)C(=O)c1cccc(-c2ccccc2)c1` [(29)], 88 µM; in that of `CCCN(C(=O)N[C@@H](COCc1ccccc1)C(=O)O)C(=O)c1cccc(-c2ccccc2)c1` [(30)], 147 µM.
On the same count and under the same terms, in the case of `CCCN(C(=O)N[C@@H](C[S+]([O-])Cc1ccccc1)C(=O)O)C(=O)c1cccc(-c2ccccc2)c1` (stereo partly drawn) [(31)] it was 165 µM; in that of `CCCN(C(=O)N[C@@H](CSCc1ccccc1)C(=O)O)C(=O)c1cccc(Cc2ccccc2)c1` [(33)], 72 µM; in that of `CCCN(C(=O)N[C@@H](CSCc1ccccc1)C(=O)O)C(=O)c1ccc(Cc2ccccc2)cc1` [(34)], 72 µM.
On the same count and under the same terms, in the case of `CCCN(C(=O)N[C@@H](CSCc1ccccc1)C(=O)O)C(=O)c1cccc(-c2ccc(F)cc2)c1` [(35)] it was 66 µM; in that of `O=C(O)[C@H](CSCc1ccccc1)NC(=O)N(Cc1cccc2ccccc12)C(=O)c1cccc(-c2ccc(F)cc2)c1` [(36)], 47 µM; in that of `O=C(O)[C@H](CSCc1ccccc1)NC(=O)N(CCC1CC1)C(=O)c1cccc(-c2ccccc2)c1` [(37)], 60 µM.
Take `Cc1cccc(C)c1C(=O)N(C(=O)N[C@@H](CSCc1ccccc1)C(=O)O)C(C)C` [(38)]: the IC50 amounted to 297 µM.
On the same count and under the same terms, in the case of `CC(C)CCN(C(=O)N[C@@H](CSCc1ccccc1)C(=O)O)C(=O)c1cccc(-c2ccccc2)c1` [(39)] it was 50 µM; in that of `CSCCN(C(=O)N[C@@H](CSCc1ccccc1)C(=O)O)C(=O)c1cccc(-c2ccccc2)c1` [(40)], 63 µM; in that of `O=C(O)[C@H](CSCc1ccccc1)NC(=O)N(CCC1CC1)C(=O)c1ccc(-c2ccccc2)cc1` [(43)], 57 µM.
Same read-out and setting: in the case of `CSCCN(C(=O)N[C@@H](CSCc1ccccc1)C(=O)O)C(=O)c1ccc(-c2ccccc2)cc1` [(45)] it was 69 µM; in that of `CCCN(C(=O)N[C@@H](CSCc1ccccc1)C(=O)O)C(=O)c1cccc(-c2ccccc2Cl)c1` [(46)], 38 µM.
The same measure, in the same setting: in the case of `CCCN(C(=O)N[C@@H](CSCc1ccccc1)C(=O)O)C(=O)c1cccc(-c2ccc(C)cc2)c1` [(47)] it was 62 µM; in that of `CCCN(C(=O)N[C@@H](CSCc1ccccc1)C(=O)O)C(=O)c1ccc(-c2ccccc2Cl)cc1` [(48)], 68 µM; in that of `CCCN(C(=O)N[C@@H](CSCc1ccccc1)C(=O)O)C(=O)c1cccc(-c2ccc(OC)cc2)c1` [(52)], 96 µM.
Turning to `CCCN(C(=O)N[C@@H](CSCc1ccccc1)C(=O)O)C(=O)c1cccc(-c2ccc(Cl)c(Cl)c2)c1` [(58)], the IC50 worked out at 48 µM.
`CCCN(C(=O)N[C@@H](CSCc1ccccc1)C(=O)O)C(=O)c1cccc(-c2ccc(Cl)cc2)c1` [(59)] returned an IC50 of 68 µM.
With `CCCN(C(=O)N[C@@H](CSCc1ccccc1)C(=O)O)C(=O)c1ccc(-c2ccc(C)cc2)cc1` [(62)], the concentration for half-maximal inhibition (IC50) stood at 48 µM. The IC50 values of the last two compounds are within 1.5-fold of each other.
As to `CCCN(C(=O)N[C@@H](CSCc1ccccc1)C(=O)O)C(=O)c1ccc(-c2ccc(OC)cc2)cc1` [(63)], the IC50 amounted to 136 µM.
Same read-out and setting: in the case of `CCCN(C(=O)N[C@@H](CSCc1ccccc1)C(=O)O)C(=O)c1ccc(-c2ccc(Cl)cc2)cc1` [(64)] it was 74 µM; in that of `CCCN(C(=O)N[C@@H](CSCc1ccccc1)C(=O)O)C(=O)c1ccc(-c2ccc(Cl)c(Cl)c2)cc1` [(65)], 60 µM; in that of `CCCN(C(=O)N[C@@H](CSCc1ccccc1)C(=O)O)C(=O)c1cccc(C#Cc2ccccc2)c1` [(66)], 58 µM.
On to `CCCN(C(=O)N[C@@H](CSCc1ccccc1)C(=O)O)C(=O)c1ccc(C#Cc2ccccc2)cc1` [(67)], for which the IC50 was 92 µM.
As for `CCN(C(=O)N[C@@H](CSCc1ccccc1)C(=O)O)C(=O)c1cccc(-c2ccccc2)c1` [(70)], the half-maximal inhibitory concentration (IC50) came out at 153 µM.
Regarding `CCCN(C(=O)NCC(=O)O)C(=O)c1cccc(-c2ccccc2)c1` [(71)], the “Bcl-wΔ29 IC50 (µM)” value was “n.b.^b”.
The same measure, in the same setting: in the case of `O=C([C@H](CSCc1ccccc1)NC(=O)N(Cc1cccc2ccccc12)C(=O)c1cccc(-c2ccc(F)cc2)c1)N1CCOCC1` [(72)] it was “n.b.^b”.
Consider `CCCN(C(=O)N[C@@H](CSCc1ccccc1)C(=O)O)C(=O)c1cc(CC(=O)O)cc(-c2ccccc2)c1` [(81)], for which the IC50 is 144 µM.

For another experiment, the target named is T2, Bcl-xLΔ25 (Homo sapiens, UniProt Q07817).
T2 construct: GST tagged Bcl-xL ΔC25 protein
T2 sequence (Q07817 1-208 limits assumed, stated change not applied): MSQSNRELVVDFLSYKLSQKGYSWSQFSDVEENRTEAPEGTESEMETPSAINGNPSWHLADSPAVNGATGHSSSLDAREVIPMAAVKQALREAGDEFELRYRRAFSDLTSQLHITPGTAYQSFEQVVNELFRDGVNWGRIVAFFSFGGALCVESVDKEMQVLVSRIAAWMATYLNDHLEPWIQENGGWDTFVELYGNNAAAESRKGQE
The experiment in a line: Alphascreen GST competition binding assay, benzoylurea compounds vs Biotinylated Bim BH3-26 peptide on GST tagged Bcl-xL ΔC25 protein. The settings on record: GST tagged Bcl-xL ΔC25 protein 0.6 nM, Biotinylated Bim BH3-26 peptide 5.0 nM, 4 hours at room temperature; n.b. = not binding in the assay conditions.
As to `CCCN(C(=O)N[C@H](CC(=O)O)Cc1c[nH]c2ccccc12)C(=O)c1cccc(C#Cc2ccccc2)c1` [(116)], the IC50 came out at 19 µM.
The same measure, in the same setting: in the case of `CCCN(C(=O)N[C@@H](Cc1csc2ccccc12)C(=O)O)C(=O)c1cccc(C#Cc2ccccc2)c1` [(117)] it was 35 µM.
Take `CCCN(C(=O)N[C@H](CC(=O)O)Cc1ccc2ccccc2c1)C(=O)c1cccc(C#Cc2ccccc2)c1` [(118)]: the IC50 was found to be 34 µM.
With `CCCN(C(=O)N[C@H](CC(=O)O)Cc1cccc2ccccc12)C(=O)c1cccc(C#Cc2ccccc2)c1` [(119)], the IC50 was found to be 67 µM. This IC50 lies about 2-fold higher than the previous one.
The same measure, in the same setting: in the case of `CCCN(C(=O)N[C@@H](CCc1ccccc1)CC(=O)O)C(=O)c1cccc(C#Cc2ccccc2)c1` [(120)] it was 44 µM.
Still for that read-out and setting: in the case of `CCCN(C(=O)N[C@@H](CCSC)CC(=O)O)C(=O)c1cccc(C#Cc2ccccc2)c1` [(121)] it was 141 µM.
